Assay results as given in patent publication US20230192699A1, “COMPOUNDS AS CASEIN KINASE INHIBITORS” (GRITSCIENCE BIOPHARMACEUTICALS CO., LTD., priority 2020, published 2023).

Columns and labels:
MDA-MB-231 cells = test: Cell proliferation assay (crystal violet); assay type: cell-based; details: various concentrations, 72 hours
Protocol: MDA-MB-231 cells treated with a compound of the present application (e.g., compound 1-1, 2-5, 1-14 and 3-8, respectively) were seeded at a density of 5×10^4cells/well in 12-well plate and incubated at 37° C. with 5% CO2. After 72 hours of culturing, the cells were washed with PBS, fixed in 4% formaldehyde for 15 minutes and stained with 0.1% crystal violet for 20 minutes. Cells were washed with water and the staining was extracted with 10% acetic acid for 20 minutes and absorbance was measured at 590 nm. The experiments were performed in triplicates.

wild type CK1δ = wild type CK1δ (Homo sapiens, UniProt P48730); test: CK1δ kinase assay (Kinase-Glo); assay type: biochemical; details: 10 μM ATP, 2 nM wild type CK1δ, 85 min at 25° C.; read-out: CK1δ inhibition (IC50)
wild type CK1δ, sequence (P48730 whole entry): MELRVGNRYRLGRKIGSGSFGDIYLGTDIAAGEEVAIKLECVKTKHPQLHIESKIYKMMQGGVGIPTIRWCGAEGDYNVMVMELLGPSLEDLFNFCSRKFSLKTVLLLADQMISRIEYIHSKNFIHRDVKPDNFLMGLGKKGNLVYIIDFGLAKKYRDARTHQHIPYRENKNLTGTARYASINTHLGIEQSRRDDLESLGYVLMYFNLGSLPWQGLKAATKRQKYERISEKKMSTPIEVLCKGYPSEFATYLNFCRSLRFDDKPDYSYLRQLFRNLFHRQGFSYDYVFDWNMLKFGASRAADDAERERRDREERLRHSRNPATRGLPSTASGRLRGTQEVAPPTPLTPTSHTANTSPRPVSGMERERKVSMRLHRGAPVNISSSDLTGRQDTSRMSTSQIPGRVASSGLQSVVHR
Protocol: The CK1δ kinase assay was performed with a buffer (40 μL, pH 7.5) containing 50 mM Tris, 10 mM MgCl2, 1 mM dithiothreitol, 100 μg/mL BSA with 10 μM ATP, 2 nM wild type CK1δ, and 42 μM peptide substrate PLSRTLpSVASLPGL (Flotow et al., 1990) in the presence of 1 μL of a CK1δ inhibitor (e.g., a compound of the present application) or 4% DMSO (e.g., as control). The reaction mixture was incubated for 85 min at 25° C.; detection was carried out as described for the Kinase-Glo Assay (Promega). Luminescent output was measured on the Perkin Elmer Envision plate reader (PerkinElmer, Waltham, Mass.).

[1] = system: MDA-MB-231 cells (breast cancer cells); test: Transwell cell migration assay; assay type: cell-based; details: MDA-MB-231, 24 h; for relative migration (%) of cells: FIG. 61; for migrated cells: FIGS. 62-67
Protocol: MDA-MB-231 cells (breast cancer cells) were starved in 0.5% serum-DMEM for 8 hours. For the migration assay, a total of 5×10^4cells were suspended in 500 μL of serum-free DMEM medium and seeded into the upper chamber of a […] pore size insert. Then, 750 μL of DMEM (containing 10% FBS) with or without the compound of the present application was added to the lower compartment. After incubation at 37° C. for 24 h, migrated cells were washed with PBS, fixed in 4% PFA and stained for 30 min in crystal violet solution (0.1% crystal violet). […] Each insert was photographed in 3 random fields at a magnification of 40×.

SMILES	relative proliferation (%) of cells (MDA-MB-231 cells)	IC50 (wild type CK1δ)	relative migration (%) of cells [1]	migrated cells [1]
CC(=O)N1CCn2nc(-c3ccc(F)cc3)c(-c3ccncc3)c2C1 [Compound 1-14, 1-(2-(4-fluorophenyl)-3-(pyridin-4-yl)-6,7-dihydropyrazolo[1,5-a]pyrazin-5(4H)-yl)ethan-1-one]	affected in a concentration dependent manner	61.5 nM	reduced	suppressed the migration
Fc1ccc(-c2nc3c(n2-c2ccncc2)CCCC3)cc1 [Compound 2-5, 2-(4-fluorophenyl)-1-(pyridin-4-yl)-4,5,6,7-tetrahydro-1H-benzo[d]imidazole]	affected in a concentration dependent manner	408 nM	reduced	suppressed the migration
